Results on 8 compounds are retold here after ChEMBL document CHEMBL1155084 (J Med Chem, 2008).

Data set [1] is described as follows: Inhibition of p38 MAPK.
Data set [2] has as its system Blood. The data set is described as follows: Inhibition of IL1-beta release in human whole blood. Format: functional, tissue-based.
For data set [3], the system named is Blood. The data set is described as follows: Inhibition of TNFalpha release in human whole blood. Format: functional, tissue-based.
Data set [4] has as its target Mitogen-activated protein kinase 3 (Homo sapiens) (UniProt P27361). The data set is described as follows: Inhibition of human ERK1 at 10 uM.
In data set [5] the target is Dual specificity mitogen-activated protein kinase kinase 1 (Homo sapiens) (UniProt Q02750). As to the kind of experiment: Inhibition of human MEK1 at 10 uM.
Sequence of Dual specificity mitogen-activated protein kinase kinase 1 (Homo sapiens) (Q02750 whole entry): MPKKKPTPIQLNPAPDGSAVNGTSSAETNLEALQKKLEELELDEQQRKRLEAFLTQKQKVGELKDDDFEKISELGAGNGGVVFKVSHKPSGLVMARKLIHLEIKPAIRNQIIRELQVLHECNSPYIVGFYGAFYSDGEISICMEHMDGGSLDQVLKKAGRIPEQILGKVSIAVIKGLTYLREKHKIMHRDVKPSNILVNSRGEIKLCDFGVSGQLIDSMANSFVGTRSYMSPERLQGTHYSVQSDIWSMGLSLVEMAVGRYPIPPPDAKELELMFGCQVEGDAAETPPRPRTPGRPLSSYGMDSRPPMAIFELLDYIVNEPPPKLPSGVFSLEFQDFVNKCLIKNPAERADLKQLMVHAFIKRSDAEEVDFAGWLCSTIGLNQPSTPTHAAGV
Data set [6] addresses Mitogen-activated protein kinase 1 (Homo sapiens) (UniProt P28482). The data set is described as follows: Inhibition of human MAPK2/ERK2 at 10 uM.
For data set [7], the target named is CYP3A4 (Homo sapiens, UniProt P08684). The data set is described as follows: Inhibition of CYP3A4 at 10 uM. Format: ADME.
Sequence of CYP3A4 (P08684 whole entry): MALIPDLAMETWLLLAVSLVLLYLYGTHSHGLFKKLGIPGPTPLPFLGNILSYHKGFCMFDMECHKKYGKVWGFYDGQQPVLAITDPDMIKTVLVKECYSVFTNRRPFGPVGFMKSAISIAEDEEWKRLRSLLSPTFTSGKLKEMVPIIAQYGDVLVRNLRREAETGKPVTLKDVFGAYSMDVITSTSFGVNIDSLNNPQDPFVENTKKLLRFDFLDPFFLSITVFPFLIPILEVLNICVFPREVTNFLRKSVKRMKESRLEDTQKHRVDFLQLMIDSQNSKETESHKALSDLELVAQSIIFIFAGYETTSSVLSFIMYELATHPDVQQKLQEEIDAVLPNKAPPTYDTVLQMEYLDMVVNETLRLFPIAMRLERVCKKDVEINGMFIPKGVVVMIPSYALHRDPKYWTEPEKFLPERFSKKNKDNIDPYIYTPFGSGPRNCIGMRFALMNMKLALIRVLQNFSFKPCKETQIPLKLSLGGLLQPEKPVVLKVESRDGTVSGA
Data set [8] addresses Rho-associated protein kinase 2 (Homo sapiens) (UniProt O75116). The data set is described as follows: Inhibition of human ROCK2 at 10 uM.
The target of data set [9] is RAF proto-oncogene serine/threonine-protein kinase (Homo sapiens) (UniProt P04049). As to the kind of experiment: Inhibition of human c-RAF at 10 uM.
Sequence of RAF proto-oncogene serine/threonine-protein kinase (Homo sapiens) (P04049 whole entry): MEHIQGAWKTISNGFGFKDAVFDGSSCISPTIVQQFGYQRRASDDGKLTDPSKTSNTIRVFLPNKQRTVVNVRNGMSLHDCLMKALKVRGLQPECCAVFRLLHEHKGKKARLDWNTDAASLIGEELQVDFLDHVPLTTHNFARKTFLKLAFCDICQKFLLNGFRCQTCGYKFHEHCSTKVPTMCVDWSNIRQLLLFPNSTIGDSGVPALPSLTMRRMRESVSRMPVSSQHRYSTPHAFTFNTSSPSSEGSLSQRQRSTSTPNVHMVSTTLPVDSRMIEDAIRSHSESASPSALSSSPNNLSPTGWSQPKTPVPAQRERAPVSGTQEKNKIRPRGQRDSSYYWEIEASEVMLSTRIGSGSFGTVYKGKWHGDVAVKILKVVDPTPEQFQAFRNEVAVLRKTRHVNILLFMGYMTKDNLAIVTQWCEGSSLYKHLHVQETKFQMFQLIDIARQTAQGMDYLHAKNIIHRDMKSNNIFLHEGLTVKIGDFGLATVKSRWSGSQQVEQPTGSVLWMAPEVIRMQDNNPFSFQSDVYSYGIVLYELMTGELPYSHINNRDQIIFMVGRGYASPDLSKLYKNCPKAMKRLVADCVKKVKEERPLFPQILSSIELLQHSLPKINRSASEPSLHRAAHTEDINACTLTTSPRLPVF
Data set [10] has as its target Mitogen-activated protein kinase 9 (Homo sapiens) (UniProt P45984). As to the kind of experiment: Inhibition of human JNK2alpha2 at 10 uM.
For data set [11], the target named is T1, CYP1A2 (Homo sapiens, UniProt P05177).
T1 sequence (P05177 whole entry): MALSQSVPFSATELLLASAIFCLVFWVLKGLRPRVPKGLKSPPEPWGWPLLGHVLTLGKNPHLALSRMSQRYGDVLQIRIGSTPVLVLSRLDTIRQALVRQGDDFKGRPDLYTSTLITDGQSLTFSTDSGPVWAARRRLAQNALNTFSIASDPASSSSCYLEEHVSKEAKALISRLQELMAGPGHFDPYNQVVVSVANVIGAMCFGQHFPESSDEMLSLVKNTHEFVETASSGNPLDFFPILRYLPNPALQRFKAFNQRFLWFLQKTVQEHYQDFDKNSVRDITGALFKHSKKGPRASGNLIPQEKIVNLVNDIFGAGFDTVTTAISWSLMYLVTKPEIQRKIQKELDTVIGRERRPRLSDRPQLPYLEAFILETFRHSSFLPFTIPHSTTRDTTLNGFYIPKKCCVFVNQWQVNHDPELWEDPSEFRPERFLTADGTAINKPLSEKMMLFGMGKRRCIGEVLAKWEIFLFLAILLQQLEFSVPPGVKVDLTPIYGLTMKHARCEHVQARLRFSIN
The data set is described as follows: Inhibition of CYP1A2 at 10 uM. In kind it is ADME.

Data set [12] addresses RAC-alpha serine/threonine-protein kinase (Homo sapiens) (UniProt P31749). The data set is described as follows: Inhibition of human PKBalpha at 10 uM.
For data set [13], the species on record is Homo sapiens. As to the kind of experiment: Inhibition of human JNK1-alpha-1/SAPK1c at 10 uM.
Data set [14] has as its target Protein kinase C alpha type (Homo sapiens) (UniProt P17252). The data set is described as follows: Inhibition of human PKCalpha at 10 uM.
In data set [15] the target is T2, Mitogen-activated protein kinase 14 (Homo sapiens, UniProt Q16539). As to the kind of experiment: Inhibition of p38alpha.
T2 sequence (Q16539 whole entry): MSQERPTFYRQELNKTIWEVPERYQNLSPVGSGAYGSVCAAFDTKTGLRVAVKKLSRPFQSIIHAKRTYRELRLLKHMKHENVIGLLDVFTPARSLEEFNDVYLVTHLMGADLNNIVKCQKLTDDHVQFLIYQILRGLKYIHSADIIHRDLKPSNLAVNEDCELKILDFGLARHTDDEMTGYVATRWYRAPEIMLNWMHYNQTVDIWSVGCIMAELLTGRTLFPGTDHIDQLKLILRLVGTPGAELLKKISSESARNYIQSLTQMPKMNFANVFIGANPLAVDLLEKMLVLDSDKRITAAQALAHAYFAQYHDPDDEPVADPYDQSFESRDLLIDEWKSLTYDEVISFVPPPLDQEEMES
In data set [16] the target is CYP2D6 (Homo sapiens, UniProt P10635). As to the kind of experiment: Inhibition of CYP2D6 at 10 uM. In kind it is ADME.
Sequence of CYP2D6 (P10635 whole entry): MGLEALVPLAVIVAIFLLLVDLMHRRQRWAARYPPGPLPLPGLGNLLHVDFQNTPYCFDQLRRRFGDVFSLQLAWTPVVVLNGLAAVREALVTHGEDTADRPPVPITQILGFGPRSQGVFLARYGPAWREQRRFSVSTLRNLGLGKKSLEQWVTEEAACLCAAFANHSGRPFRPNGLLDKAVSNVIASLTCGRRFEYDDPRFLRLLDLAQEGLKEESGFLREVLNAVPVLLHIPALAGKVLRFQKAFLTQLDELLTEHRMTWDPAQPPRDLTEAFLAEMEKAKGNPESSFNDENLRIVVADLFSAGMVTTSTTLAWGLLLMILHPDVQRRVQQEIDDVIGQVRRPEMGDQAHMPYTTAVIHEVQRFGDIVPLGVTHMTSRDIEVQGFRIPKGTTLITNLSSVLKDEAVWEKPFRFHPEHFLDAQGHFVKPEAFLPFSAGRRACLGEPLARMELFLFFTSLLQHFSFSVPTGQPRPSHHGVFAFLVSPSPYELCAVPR
In data set [17] the target is CYP2C9 (Homo sapiens, UniProt P11712). As to the kind of experiment: Inhibition of CYP2C9 at 10 uM. In kind it is ADME.
Sequence of CYP2C9 (P11712 whole entry): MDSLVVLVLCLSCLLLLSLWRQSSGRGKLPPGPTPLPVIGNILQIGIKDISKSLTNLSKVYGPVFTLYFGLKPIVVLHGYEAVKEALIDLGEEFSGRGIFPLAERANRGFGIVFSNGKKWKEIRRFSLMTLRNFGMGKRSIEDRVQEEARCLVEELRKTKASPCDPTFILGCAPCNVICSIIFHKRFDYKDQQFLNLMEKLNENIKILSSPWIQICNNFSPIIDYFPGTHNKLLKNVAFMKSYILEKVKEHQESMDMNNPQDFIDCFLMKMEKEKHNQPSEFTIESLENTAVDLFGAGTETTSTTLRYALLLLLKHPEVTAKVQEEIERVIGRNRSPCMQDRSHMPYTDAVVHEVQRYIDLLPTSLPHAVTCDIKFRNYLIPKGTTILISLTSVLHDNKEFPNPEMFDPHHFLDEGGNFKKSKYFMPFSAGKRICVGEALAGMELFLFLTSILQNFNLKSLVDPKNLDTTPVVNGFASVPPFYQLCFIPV
Data set [18] deals with Mitogen-activated protein kinase 10 (Homo sapiens) (UniProt P53779). As to the kind of experiment: Inhibition of human JNK3 at 10 uM.
Sequence of Mitogen-activated protein kinase 10 (Homo sapiens) (P53779 whole entry): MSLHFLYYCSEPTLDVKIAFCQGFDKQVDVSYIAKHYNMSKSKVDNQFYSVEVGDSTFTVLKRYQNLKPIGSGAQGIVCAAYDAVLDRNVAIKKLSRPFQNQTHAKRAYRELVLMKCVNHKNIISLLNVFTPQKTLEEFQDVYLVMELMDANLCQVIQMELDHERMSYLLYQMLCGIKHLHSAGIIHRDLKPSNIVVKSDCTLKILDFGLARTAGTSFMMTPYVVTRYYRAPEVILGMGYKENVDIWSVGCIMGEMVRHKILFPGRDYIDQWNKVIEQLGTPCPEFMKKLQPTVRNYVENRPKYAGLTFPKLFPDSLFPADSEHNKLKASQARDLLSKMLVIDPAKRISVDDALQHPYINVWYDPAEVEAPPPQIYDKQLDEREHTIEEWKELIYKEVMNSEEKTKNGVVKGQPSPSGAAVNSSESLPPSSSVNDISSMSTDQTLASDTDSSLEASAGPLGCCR
Data set [19] deals with T2, Mitogen-activated protein kinase 14. Conditions: at 10 µM.
Description: Inhibition of human SAPK2a/p38-alpha at 10 uM
For data set [20], the species on record is Homo sapiens. As to the kind of experiment: Inhibition of human PKA at 10 uM.
The target of data set [21] is Glycogen synthase kinase-3 beta (Homo sapiens) (UniProt P49841). The data set is described as follows: Inhibition of human GSK3-beta at 10 uM.
The target of data set [22] is CYP2C19 (Homo sapiens, UniProt P33261). As to the kind of experiment: Inhibition of CYP2C19 at 10 uM. In kind it is ADME.
Data set [23] concerns the target Tyrosine-protein kinase Lck (Homo sapiens) (UniProt P06239). The data set is described as follows: Inhibition of human LCK at 10 uM.
Data set [24] is filed under the species Homo sapiens. The data set is described as follows: Inhibition of human CAMK2 at 10 uM.

Broadly, the IC50 is the concentration that gives 50% inhibition. The term inhibition denotes the drop in the measured response relative to a control, in per cent. A high value points to a strong effect.

Sequence of RAC-alpha serine/threonine-protein kinase (Homo sapiens) (P31749 whole entry): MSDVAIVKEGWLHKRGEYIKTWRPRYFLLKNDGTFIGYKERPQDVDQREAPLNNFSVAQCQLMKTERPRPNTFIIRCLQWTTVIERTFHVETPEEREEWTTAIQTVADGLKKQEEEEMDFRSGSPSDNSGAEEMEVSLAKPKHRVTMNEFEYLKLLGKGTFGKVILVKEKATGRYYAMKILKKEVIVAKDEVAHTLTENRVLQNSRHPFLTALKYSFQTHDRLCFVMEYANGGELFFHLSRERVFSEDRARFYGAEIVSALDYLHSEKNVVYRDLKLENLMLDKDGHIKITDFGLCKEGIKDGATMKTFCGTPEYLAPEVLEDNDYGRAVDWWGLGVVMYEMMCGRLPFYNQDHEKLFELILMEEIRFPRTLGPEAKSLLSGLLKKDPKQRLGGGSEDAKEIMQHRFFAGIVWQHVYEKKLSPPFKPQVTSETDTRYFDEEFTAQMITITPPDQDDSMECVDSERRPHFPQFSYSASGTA
Sequence of Mitogen-activated protein kinase 9 (Homo sapiens) (P45984 whole entry, looked up): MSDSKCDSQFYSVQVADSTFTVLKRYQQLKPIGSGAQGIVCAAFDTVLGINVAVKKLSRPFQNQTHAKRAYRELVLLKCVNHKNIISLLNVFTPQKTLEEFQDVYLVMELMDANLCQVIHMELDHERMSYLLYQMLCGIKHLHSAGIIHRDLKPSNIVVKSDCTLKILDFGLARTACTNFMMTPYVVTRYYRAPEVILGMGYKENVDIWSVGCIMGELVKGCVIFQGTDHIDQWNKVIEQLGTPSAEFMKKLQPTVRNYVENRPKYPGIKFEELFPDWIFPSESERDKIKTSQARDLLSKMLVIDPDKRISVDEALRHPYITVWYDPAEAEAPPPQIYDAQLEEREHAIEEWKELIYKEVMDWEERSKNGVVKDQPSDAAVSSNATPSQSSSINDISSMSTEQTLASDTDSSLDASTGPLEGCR

`Clc1ccc(-c2nc(-c3ccccc3)[nH]c2-c2ccncc2)cc1` gave an IC50 in data set [1] of 48 nM.

`FC(F)(F)c1cccc(-c2nc(-c3ccccc3)[nH]c2-c2ccncc2)c1`: inhibition in data set [1] was half-maximal at 86 nM (IC50).

In the case of `CSc1nc(-c2ccc(F)cc2)c(-c2ccnc(NC(C)c3ccccc3)c2)[nH]1` (stereo not given), the IC50 in data set [2] turned out to be 4330 nM; in data set [3], 4330 nM; in data set [1], 380 nM.

Take `CSc1nc(-c2ccc(F)cc2)c(-c2ccncc2)[nH]1`: the figures for the IC50 in data set [2], in [3] and in [1] were 44 nM, 8650 nM and 630 nM, respectively.

Take `CSc1nc(-c2ccc(F)cc2)c(-c2ccnc(NC(C)c3ccccc3)c2)n1C` (stereo not given): the half-inhibitory concentration (IC50) is 4100 nM in [2], 3000 nM in data set [3] and 220 nM in data set [1].

For the compound `C[S+]([O-])c1ccc(CSc2nc(-c3ccc(F)cc3)c(-c3ccncc3)[nH]2)cc1` (stereo not given), the results for the IC50 in data set [2], in data set [3] and in data set [1] were 380 nM, 1100 nM and 4 nM, respectively.

Regarding `CSc1nc(-c2ccc(F)cc2)c(-c2ccnc(NC(C)CCCC(C)C)c2)[nH]1` (stereo not given), the inhibition in [4] was 28%; in data set [5], 2%; in data set [6] it was 6%; in data set [8], 0%; in [9] it was 7%; in data set [10] it was 91%. Besides, the inhibition in data set [12] worked out at 6%; in data set [13], 86%; in data set [14], 0%; in data set [18] it was 99%; in data set [19], 94%; in data set [20] it was 0%. Moreover, the inhibition in data set [21] came out at 0%; in data set [23], 47%; in data set [24], 0%. Further, the IC50 in data set [2] turned out to be 7560 nM; in [3], 3990 nM; in data set [15], 20 nM. The inhibition at 10 µM worked out at 71% in data set [7]; 23% in data set [11]; 66% in data set [16]; 76% in data set [17]; 84% in [22].

With `CSc1nc(-c2ccc(F)cc2)c(-c2ccnc(NC(C)CCc3ccccc3)c2)[nH]1` (stereo not given), the inhibition in data set [4] came out at 32%; in [5], 3%; in data set [6] it was 17%; in data set [8], 0%; in data set [9], 19%; in [10], 94%. In addition, the inhibition in [12] came to 5%; in data set [13], 88%; in data set [14], 0%; in data set [18] it was 99%; in [19], 97%; in data set [20] it was 0%. Moreover, the results for the inhibition in data set [21], in [23] and in data set [24] were 0%, 30% and 0%, respectively. For the same compound, the IC50 in [2] was 2370 nM; in data set [3], 350 nM; in data set [15] it was 13 nM. The inhibition at 10 µM in data set [7] was 95%; in [11], 38%; in data set [16] it was 78%; in data set [17], 88%; in [22], 89%.
